Holding throughout (assay): NCI anticancer screen, dose series, 48 h
Assay [1] relates to A498.
Assay [2] concerns CAKI-1.
Assay [3] deals with COLO 205.
Assay [4] has as its system DU-145.
The test system of assay [5] is HCT-116.
In assay [6] the test system is HT-29.
Assay [7] deals with K562.
In assay [8] the test system is M14.
The subject of assay [9] is MCF7.
Assay [10] relates to MDA-MB-231.
Assay [11] concerns MOLT-4.
Assay [12] deals with NCI-H226.
The test system of assay [13] is NCI-H522.
Assay [14] relates to OVCAR-3.
The test system of assay [15] is SF-268.
Assay [16] deals with SK-MEL-28.
For assay [17], the system named is UACC-257.
The subject of assay [18] is UACC-62.
For assay [19], the system named is UO-31.

Here are results for ten molecules from ChEMBL document CHEMBL1201862, “PubChem BioAssay data set” (2004).

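96-well plates; 48 h exposure; 5 concentrations. Endpoints by linear interpolation between flanking doses. Not reached: highest tested concentration assigned. At the GI50, growth is halved.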 Activity calls are given as the source filed them. No stated cut-off is given here; in the data, active = GI50 up to about 1.1 µM and inactive = higher.

For the molecule `CN(CC(=O)O)c1ncc2c(n1)C=CCC2`, the GI50 in assay [1], in assay [2], in assay [3], in assay [4], in assay [5] and in assay [6] was > 100 µM (inactive) in each case. Moreover, the GI50 in assay [7], in assay [8], in [9], in assay [10], in assay [11] and in [12] was > 100 µM (inactive) throughout. In addition, the GI50 in assay [13], in assay [14], in [15], in [16], in [17] and in assay [18] was > 100 µM (inactive) throughout. In addition, the GI50 in assay [19] is > 100 µM (inactive).

In the case of `CCCCCCCCCCCCCCCCNc1nc(=O)n(C2CC(O)C(COP(=O)(O)OC3CC(n4cc(F)c(=O)[nH]c4=O)OC3CO)O2)cc1F` (stereo not given), the GI50 in [1] was 0.09 µM (active); in [2], 0.258 µM (active); in assay [3] it was 10.9 µM (inactive); in assay [4] it was 0.222 µM (active); in assay [5], 0.504 µM (active); in assay [6], 1.87 µM (inactive). For the same molecule, the GI50 is 1.41 µM (inactive) in assay [7]; 0.687 µM (active) in [8]; < 0.01 µM (active) in assay [9]; 28.4 µM (inactive) in assay [10]; 1.95 µM (inactive) in [11]; 9.51 µM (inactive) in assay [12]. The GI50 in assay [13] is 8.75 µM (inactive); in assay [14], 10 µM (inactive); in [15], < 0.0218 µM (active); in [16] it was 14.2 µM (inactive); in assay [17], 12.8 µM (inactive); in assay [18], 0.337 µM (active). For the same molecule, the GI50 in [19] is 0.257 µM (active).

`O=C(/C=C(O)/C(=C/C(=O)c1ccccc1)NN=C(c1ccccc1)c1ccccc1)c1ccccc1`: the GI50 was 32.4 µM (inactive) in assay [1]; 39.7 µM (inactive) in assay [2]; 40.6 µM (inactive) in assay [3]; 45.2 µM (inactive) in assay [4]; 28.1 µM (inactive) in [5]; 85.7 µM (inactive) in assay [6]. For the same molecule, the GI50 in assay [7] was 15.2 µM (inactive); in [8], 24.9 µM (inactive); in assay [9], 34.4 µM (inactive); in assay [10], 49.7 µM (inactive); in assay [11], 14.1 µM (inactive); in assay [12], 24.9 µM (inactive). The GI50 in [13] was 15.7 µM (inactive); in [14], 18.3 µM (inactive); in assay [15], 30.3 µM (inactive); in assay [16], 51.6 µM (inactive); in assay [17], 26.9 µM (inactive); in assay [18], 17.1 µM (inactive). For the same molecule, in assay [19], the GI50 was 47.6 µM (inactive).

`C=C1CCCCCCCCC/C=C/1SCCCSC`: the GI50 in assay [1], in assay [2], in assay [3], in assay [4], in [5] and in assay [6] was > 100 µM (inactive) throughout. Also, the GI50 in assay [7], in assay [8], in [9], in assay [10], in assay [11] and in assay [12] was > 100 µM (inactive) throughout. Also, the GI50 in [13], in assay [14], in assay [15], in assay [16], in assay [17] and in assay [18] was > 100 µM (inactive) throughout. In [19], the GI50 was > 100 µM (inactive).

In the case of `CC(=O)N1NC(c2ccccc2)=NC(=O)C1c1cc(C)c(O)c(C)c1` (stereo not given), the GI50 in [1] is 28.3 µM (inactive); in [2] it was > 100 µM (inactive); in assay [3], > 100 µM (inactive); in assay [4], 22.7 µM (inactive); in assay [5], 21.2 µM (inactive); in [6], 72.4 µM (inactive). The GI50 was > 100 µM (inactive) in assay [7]; 71.9 µM (inactive) in assay [8]; 21.2 µM (inactive) in [9]; 21.7 µM (inactive) in [10]; > 100 µM (inactive) in assay [11]; 23.9 µM (inactive) in [12]. Also, the GI50 in assay [13] is 17.8 µM (inactive); in assay [14], 19.2 µM (inactive); in assay [15], 16.9 µM (inactive); in [16], 54.6 µM (inactive); in assay [17], 31.2 µM (inactive); in assay [18] it was 20.3 µM (inactive). Moreover, in assay [19], the GI50 is 21.7 µM (inactive).

For the molecule `Cc1ccc(S(=O)(=O)N/N=C2\CC3CC4CCC2C4C3)cc1` (stereo not given), the GI50 in assay [1], in assay [2], in assay [3], in [4], in [5] and in [6] was > 100 µM (inactive) in each case. The GI50 in assay [7], in assay [8], in assay [9], in [10], in assay [11] and in assay [12] was > 100 µM (inactive) in each case. The GI50 in assay [13], in assay [14], in assay [15], in assay [16], in [17] and in assay [18] was > 100 µM (inactive) in each case. In addition, in assay [19], the GI50 was > 100 µM (inactive).

On to `COC(=O)/C=C1\C(=O)N(C(C)=O)c2ccccc21`, for which the GI50 was 0.0371 µM (active) in assay [1]; 0.0671 µM (active) in assay [2]; 12.2 µM (inactive) in assay [3]; 9.86 µM (inactive) in [4]; 8.28 µM (inactive) in assay [5]; 5.28 µM (inactive) in assay [6]. The GI50 in [7] is 5.61 µM (inactive); in [8] it was 13.2 µM (inactive); in assay [9], 3.64 µM (inactive); in assay [10], 7.6 µM (inactive); in assay [11], 5.78 µM (inactive); in [12], 12.4 µM (inactive). Further, the GI50 is 3.35 µM (inactive) in assay [13]; 7.67 µM (inactive) in assay [14]; 16.5 µM (inactive) in assay [15]; 12.3 µM (inactive) in assay [16]; 7.38 µM (inactive) in assay [17]; 4.27 µM (inactive) in assay [18]. For the same molecule, the GI50 in assay [19] is 12.9 µM (inactive).

In the case of `CC(C)(O)C1CC(=O)C(C)(C2C(O)CC3(C)C4CC=C5C(CCC(O)C5(C)C)C4(C)C(=O)CC23C)O1` (stereo not given), the GI50 in assay [1], in assay [2], in assay [3], in assay [4], in [5] and in assay [6] was > 100 µM (inactive) each time. The GI50 in assay [7], in assay [8], in [9], in [10], in [11] and in assay [12] was > 100 µM (inactive) in each case. In addition, the GI50 in [13], in [14], in assay [15], in [16], in assay [17] and in assay [18] was > 100 µM (inactive) throughout. Also, the GI50 in assay [19] was > 100 µM (inactive).

In the case of `CC1=NN(c2nc(N)nc(/C(C#N)=C/c3ccccc3O)n2)C(C)(C)C1`, the GI50 was 24.7 µM (inactive) in assay [1]; 19.6 µM (inactive) in assay [2]; 17.4 µM (inactive) in assay [3]; 15.4 µM (inactive) in [4]; 18.3 µM (inactive) in [5]; 19.8 µM (inactive) in assay [6]. The GI50 in [7] is 51.5 µM (inactive); in assay [8], 20.8 µM (inactive); in [9] it was 24.8 µM (inactive); in assay [10], 19.9 µM (inactive); in assay [11], 30.4 µM (inactive); in [12], 17.3 µM (inactive). Moreover, the GI50 in assay [13] is 19.8 µM (inactive); in [14], 14.7 µM (inactive); in assay [15], 18.2 µM (inactive); in assay [16], 16.7 µM (inactive); in assay [17], 18.9 µM (inactive); in assay [18], 17.1 µM (inactive). For the same molecule, the GI50 in assay [19] is 18.8 µM (inactive).

In the case of `FC(F)(F)C1(C(F)(F)F)O[Si]2(OC(C(F)(F)F)(C(F)(F)F)c3ccccc32)c2ccccc21`, the GI50 was 13.7 µM (inactive) in assay [1]; 19.1 µM (inactive) in assay [2]; 14.8 µM (inactive) in assay [3]; 15.4 µM (inactive) in assay [4]; 5.45 µM (inactive) in assay [5]; 7.62 µM (inactive) in assay [6]. Besides, the GI50 in assay [7] is 10.3 µM (inactive); in assay [8], 13.2 µM (inactive); in assay [9], 14.4 µM (inactive); in assay [10] it was 8.24 µM (inactive); in assay [11], 14.4 µM (inactive); in assay [12], 4.53 µM (inactive). For the same molecule, the GI50 in assay [13] is 7.53 µM (inactive); in assay [14] it was 16.5 µM (inactive); in assay [15], 15.6 µM (inactive); in assay [16], 12 µM (inactive); in [17], 18 µM (inactive); in assay [18], 5.55 µM (inactive). The GI50 in [19] was 9.12 µM (inactive).
